Among the data in patent US20060079555A1, “Diarylmethylidene piperidine derivatives, preparations thereof and uses thereof” (AstraZeneca AB, priority 2003, published 2006) are Emax values, retold here.

This assay addresses T1, human δ receptor (Homo sapiens, UniProt P41143).
T1 construct: expressed in transfected cells
Kind of assay: GTP[γ]35S binding functional assay, human δ receptor. In kind it is biochemical. Particulars: Emax in relation to the standard δ agonist SNC80. The procedure:
The agonist activity of the compounds is measured by determining the degree to which the compounds receptor complex activates the binding of GTP to G-proteins to which the receptors are coupled. In the GTP binding assay, GTP[γ]^35S is combined with test compounds and membranes from HEK-293S cells expressing the cloned human opioid receptors or from homogenised rat and mouse brain. Agonists stimulate GTP[γ]^35S binding in these membranes. The EC50 and Emax values of compounds are determined from dose-response curves. Right shifts of the dose response curve by the delta antagonist naltrindole are performed to verify that agonist activity is mediated through delta receptors. The Emax values were determined in relation to the standard δ agonist SNC80, i.e., higher than 100% is a compound that have better efficacy than SNC80.
For orientation: GTPγS is a poorly hydrolysed GTP analogue; its binding reports G protein activation.

SMILES strings stand for the structures.

T1 sequence (P41143 whole entry): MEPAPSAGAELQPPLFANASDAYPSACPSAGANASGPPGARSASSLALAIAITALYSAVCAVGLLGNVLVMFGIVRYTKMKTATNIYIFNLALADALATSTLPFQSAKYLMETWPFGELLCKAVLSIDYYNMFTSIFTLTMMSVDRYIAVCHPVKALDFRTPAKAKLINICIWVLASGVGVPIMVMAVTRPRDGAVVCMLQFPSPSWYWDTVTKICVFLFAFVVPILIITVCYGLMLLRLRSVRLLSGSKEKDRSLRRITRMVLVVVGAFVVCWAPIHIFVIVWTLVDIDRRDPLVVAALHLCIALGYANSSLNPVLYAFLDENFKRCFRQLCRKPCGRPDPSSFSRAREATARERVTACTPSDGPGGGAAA

As usually defined, the Emax is the greatest response seen or fitted, relative to the assay's reference. In turn, `CCN(CC)C(=O)c1ccc(C(=C2CCNCC2)c2cccc(C(=O)N[C@H](C)c3ccc(C)cc3)c2)cc1` [Compound 9, 4-[[3-({[(1R)1-(4-methylphenyl)ethyl]amino}carbonyl)phenyl](piperidin-4-ylidene)methyl]-N,N-diethylbenzamide] came in with an Emax of 69 to 105%.
Next, `CCN(CC)C(=O)c1ccc(C(=C2CCNCC2)c2cccc(C(=O)NCC(C)C)c2)cc1` [Compound 12, 4-[{3-[(isobutylamino)carbonyl]phenyl}(piperidin-4-ylidene)methyl]-N,N-diethylbenzamide]: 69 to 105%; `CCN(CC)C(=O)c1ccc(C(=C2CCNCC2)c2cccc(C(=O)NCCc3ccccc3)c2)cc1` [Compound 3, 4-[(3-{[(2-phenylethyl)amino]carbonyl}phenyl)(piperidin-4-ylidene)methyl]-N,N-diethylbenzamide]: 69 to 105%; `CCC(CC)NC(=O)c1cccc(C(=C2CCNCC2)c2ccc(C(=O)N(CC)CC)cc2)c1` [Compound 13, 4-[(3{[(1-ethylpropyl)amino]carbonyl}phenyl)(piperidin-4-ylidene)methyl]-N,N-diethylbenzamide]: 69 to 105%.
On to `CCN(CC)C(=O)c1ccc(C(=C2CCNCC2)c2cccc(C(=O)N3CCCCC3)c2)cc1` [Compound 15], for which the maximal response (Emax) was in the range of 69 to 105%.
`CCN(CC)C(=O)c1ccc(C(=C2CCNCC2)c2cccc(C(=O)Nc3ccc(C)nc3C)c2)cc1` [Compound 11]: the maximum response (Emax) lay within 69 to 105%.
The result for `CCN(CC)C(=O)c1ccc(C(=C2CCNCC2)c2cccc(C(=O)Nc3ccccc3)c2)cc1` [Compound 1, 4-[[3-(anilinocarbonyl)phenyl](piperidin-4-ylidene)methyl]-N,N-diethylbenzamide] reads 69 to 105%.
For `CCN(CC)C(=O)c1ccc(C(=C2CCNCC2)c2cccc(C(=O)NC3CCCCC3)c2)cc1` [Compound 5], the Emax is 69 to 105%.
Next, `CCN(CC)C(=O)c1ccc(C(=C2CCNCC2)c2cccc(C(=O)NCc3ccccc3)c2)cc1` [Compound 2, 4-[{3-[(benzylamino)carbonyl]phenyl}(piperidin-4-ylidene)methyl]-N,N-diethylbenzamide]: 69 to 105%.
The result for `CCN(CC)C(=O)c1ccc(C(=C2CCNCC2)c2cccc(C(=O)NCc3ccccc3F)c2)cc1` [Compound 8, 4-[(3-{[(2-fluorobenzyl)amino]carbonyl}phenyl)(piperidin-4-ylidene)methyl]-N,N-diethylbenzamide] reads 69 to 105%; that for `CCN(CC)C(=O)c1ccc(C(=C2CCNCC2)c2cccc(C(=O)NCC3CCCCC3)c2)cc1` [Compound 6], 69 to 105%.
Turning to `CCN(CC)C(=O)c1ccc(C(=C2CCNCC2)c2cccc(C(=O)N(C)CCc3ccccc3)c2)cc1` [Compound 14, 4-[(3-{[methyl(2-phenylethyl)amino]carbonyl}phenyl)(piperidin-4-ylidene)methyl]-N,N-diethylbenzamide], the Emax was in the range of 69 to 105%.
`CCN(CC)C(=O)c1ccc(C(=C2CCNCC2)c2cccc(C(=O)N3CCCC3)c2)cc1` [Compound 16, N,N-diethyl-4-{piperidin-4-ylidene[3-(pyrrolidin-1-ylcarbonyl)phenyl]methyl}benzamide] displayed an Emax of 69 to 105%.
With `CCN(CC)C(=O)c1ccc(C(=C2CCNCC2)c2cccc(C(=O)NCc3ccccc3Cl)c2)cc1` [Compound 7, 4-[(3-{[(2-chlorobenzyl)amino]carbonyl}phenyl)(piperidin-4-ylidene)methyl]-N,N-diethylbenzamide], the maximum response (Emax) was in the range of 69 to 105%.
As for `CCN(CC)C(=O)c1ccc(C(=C2CCNCC2)c2cccc(C(=O)NC3CCCC3)c2)cc1` [Compound 4, 4-[{3-[(cyclopentlamino)carbonyl]phenyl}(piperidin-4-ylidene)methyl]-N,N-diethylbenzamide], the Emax was in the range of 69 to 105%.
In turn, `CCN(CC)C(=O)c1ccc(C(=C2CCNCC2)c2cccc(C(=O)Nc3nc(C)cs3)c2)cc1` [Compound 10, 4-[(3-{[(4-methyl-1,3-thiazol-2-yl)amino]carbonyl}phenyl)(piperidin-4-ylidene)methyl]-N,N-diethylbenzamide] gave a maximum response (Emax) of 69 to 105%.
